System: plants
Experiment: Test D pre-emergence, other plants of Tables D1 and D3
Format: in vivo
Settings: preemergent, 20 DAA
Procedure: A formulation containing 50 g/L of the test chemical was prepared by dissolving the active ingredient in a mixture of organic solvents and emulsifier, details of which are provided in the table. This formulation was then mixed with a small, variable amount of acetone to aid dissolution, before addition of a 0.2% v/v aqueous solution of an adjuvant, as the aqueous diluent, to form an aqueous spray solution which contains a predetermined concentration of the active ingredient.
This aqueous spray solution was then sprayed onto plants including maize and wheat that had been seed treated with a herbicide safener, after one day's cultivation (for pre-emergence) or after about 12 days' cultivation (for post-emergence). The plants were grown from seeds sown in standard soil, placed in a glasshouse under controlled conditions (at 24/18° C. or 20/16° C., day/night; 16 h light; 65% humidity). After spray application the plants were then grown in a glasshouse under the same conditions and watered twice daily. After 15 d for post-emergence and 20 DAA for pre-emergence the test was evaluated (100=total damage to plant; 0=no damage to plant).

CCn1nc([C@@H]2CN(C)C(=O)[C@H]2C(=O)Nc2cccc(F)c2F)c2cccc(F)c21 [Compound 14]
90: damage to plant (100=total damage to plant; 0=no damage to plant), BRAPL (rate 130) | damage to plant (100=total damage to plant; 0=no damage to plant), BRAPL (rate 250) | damage to plant (100=total damage to plant; 0=no damage to plant), BRAPL (rate 500) | damage to plant (100=total damage to plant; 0=no damage to plant), DIGSA (rate 60) | damage to plant (100=total damage to plant; 0=no damage to plant), DIGSA (rate 130) | damage to plant (100=total damage to plant; 0=no damage to plant), DIGSA (rate 250) | damage to plant (100=total damage to plant; 0=no damage to plant), DIGSA (rate 500) | damage to plant (100=total damage to plant; 0=no damage to plant), ECHCG (rate 130) | damage to plant (100=total damage to plant; 0=no damage to plant), ECHCG (rate 250) | damage to plant (100=total damage to plant; 0=no damage to plant), ECHCG (rate 500) | damage to plant (100=total damage to plant; 0=no damage to plant), SETFA (rate 250) | damage to plant (100=total damage to plant; 0=no damage to plant), SETFA (rate 500)
60: damage to plant (100=total damage to plant; 0=no damage to plant), BRAPL (rate 60) | damage to plant (100=total damage to plant; 0=no damage to plant), DIGSA (rate 15)
50: damage to plant (100=total damage to plant; 0=no damage to plant), ECHCG (rate 30)
80: damage to plant (100=total damage to plant; 0=no damage to plant), DIGSA (rate 30) | damage to plant (100=total damage to plant; 0=no damage to plant), PANMI (rate 500) | damage to plant (100=total damage to plant; 0=no damage to plant), SETFA (rate 60) | damage to plant (100=total damage to plant; 0=no damage to plant), SETFA (rate 130) | damage to plant (100=total damage to plant; 0=no damage to plant), SIDSP (rate 250) | damage to plant (100=total damage to plant; 0=no damage to plant), SIDSP (rate 500)
40: damage to plant (100=total damage to plant; 0=no damage to plant), BRAPL (rate 30)
10: damage to plant (100=total damage to plant; 0=no damage to plant), ABUTH (rate 250) | damage to plant (100=total damage to plant; 0=no damage to plant), EPHHL (rate 250) | damage to plant (100=total damage to plant; 0=no damage to plant), SIDSP (rate 15) | damage to plant (100=total damage to plant; 0=no damage to plant), SIDSP (rate 30)
30: damage to plant (100=total damage to plant; 0=no damage to plant), BRAPL (rate 15) | damage to plant (100=total damage to plant; 0=no damage to plant), ECHCG (rate 15) | damage to plant (100=total damage to plant; 0=no damage to plant), PANMI (rate 250) | damage to plant (100=total damage to plant; 0=no damage to plant), SETFA (rate 15) | damage to plant (100=total damage to plant; 0=no damage to plant), SIDSP (rate 60) | damage to plant (100=total damage to plant; 0=no damage to plant), SIDSP (rate 130)
70: damage to plant (100=total damage to plant; 0=no damage to plant), ECHCG (rate 60) | damage to plant (100=total damage to plant; 0=no damage to plant), SETFA (rate 30)
0: damage to plant (100=total damage to plant; 0=no damage to plant), ABUTH (rate 15) | damage to plant (100=total damage to plant; 0=no damage to plant), ABUTH (rate 30) | damage to plant (100=total damage to plant; 0=no damage to plant), ABUTH (rate 60) | damage to plant (100=total damage to plant; 0=no damage to plant), ABUTH (rate 130) | damage to plant (100=total damage to plant; 0=no damage to plant), AMARE (rate 15) | damage to plant (100=total damage to plant; 0=no damage to plant), AMARE (rate 30) | damage to plant (100=total damage to plant; 0=no damage to plant), AMARE (rate 60) | damage to plant (100=total damage to plant; 0=no damage to plant), AMARE (rate 130) | damage to plant (100=total damage to plant; 0=no damage to plant), AMARE (rate 250) | damage to plant (100=total damage to plant; 0=no damage to plant), AMARE (rate 500) | damage to plant (100=total damage to plant; 0=no damage to plant), BIDPI (rate 15) | damage to plant (100=total damage to plant; 0=no damage to plant), BIDPI (rate 30) | damage to plant (100=total damage to plant; 0=no damage to plant), BIDPI (rate 60) | damage to plant (100=total damage to plant; 0=no damage to plant), BIDPI (rate 130) | damage to plant (100=total damage to plant; 0=no damage to plant), BIDPI (rate 250) | damage to plant (100=total damage to plant; 0=no damage to plant), BIDPI (rate 500) | damage to plant (100=total damage to plant; 0=no damage to plant), CYPES (rate 15) | damage to plant (100=total damage to plant; 0=no damage to plant), CYPES (rate 30) | damage to plant (100=total damage to plant; 0=no damage to plant), CYPES (rate 60) | damage to plant (100=total damage to plant; 0=no damage to plant), CYPES (rate 130) | damage to plant (100=total damage to plant; 0=no damage to plant), CYPES (rate 250) | damage to plant (100=total damage to plant; 0=no damage to plant), CYPES (rate 500) | damage to plant (100=total damage to plant; 0=no damage to plant), ELEIN (rate 15) | damage to plant (100=total damage to plant; 0=no damage to plant), ELEIN (rate 30) | damage to plant (100=total damage to plant; 0=no damage to plant), ELEIN (rate 60) | damage to plant (100=total damage to plant; 0=no damage to plant), ELEIN (rate 130) | damage to plant (100=total damage to plant; 0=no damage to plant), ELEIN (rate 250) | damage to plant (100=total damage to plant; 0=no damage to plant), ELEIN (rate 500) | damage to plant (100=total damage to plant; 0=no damage to plant), EPHHL (rate 15) | damage to plant (100=total damage to plant; 0=no damage to plant), EPHHL (rate 30) | damage to plant (100=total damage to plant; 0=no damage to plant), EPHHL (rate 60) | damage to plant (100=total damage to plant; 0=no damage to plant), EPHHL (rate 130) | damage to plant (100=total damage to plant; 0=no damage to plant), GLXMA (rate 15) | damage to plant (100=total damage to plant; 0=no damage to plant), GLXMA (rate 30) | damage to plant (100=total damage to plant; 0=no damage to plant), GLXMA (rate 60) | damage to plant (100=total damage to plant; 0=no damage to plant), GLXMA (rate 130) | damage to plant (100=total damage to plant; 0=no damage to plant), GLXMA (rate 250) | damage to plant (100=total damage to plant; 0=no damage to plant), GLXMA (rate 500) | damage to plant (100=total damage to plant; 0=no damage to plant), IPOHE (rate 15) | damage to plant (100=total damage to plant; 0=no damage to plant), IPOHE (rate 30) | damage to plant (100=total damage to plant; 0=no damage to plant), IPOHE (rate 60) | damage to plant (100=total damage to plant; 0=no damage to plant), IPOHE (rate 130) | damage to plant (100=total damage to plant; 0=no damage to plant), IPOHE (rate 250) | damage to plant (100=total damage to plant; 0=no damage to plant), IPOHE (rate 500) | damage to plant (100=total damage to plant; 0=no damage to plant), ORYSA (rate 15) | damage to plant (100=total damage to plant; 0=no damage to plant), ORYSA (rate 30) | damage to plant (100=total damage to plant; 0=no damage to plant), ORYSA (rate 60) | damage to plant (100=total damage to plant; 0=no damage to plant), ORYSA (rate 130) | damage to plant (100=total damage to plant; 0=no damage to plant), ORYSA (rate 250) | damage to plant (100=total damage to plant; 0=no damage to plant), ORYSA (rate 500) | damage to plant (100=total damage to plant; 0=no damage to plant), PANMI (rate 15) | damage to plant (100=total damage to plant; 0=no damage to plant), PANMI (rate 30) | damage to plant (100=total damage to plant; 0=no damage to plant), PANMI (rate 60) | damage to plant (100=total damage to plant; 0=no damage to plant), PANMI (rate 130) | damage to plant (100=total damage to plant; 0=no damage to plant), SORVU (rate 15) | damage to plant (100=total damage to plant; 0=no damage to plant), SORVU (rate 30) | damage to plant (100=total damage to plant; 0=no damage to plant), SORVU (rate 60)
20: damage to plant (100=total damage to plant; 0=no damage to plant), ABUTH (rate 500) | damage to plant (100=total damage to plant; 0=no damage to plant), EPHHL (rate 500)
